From ChEMBL document CHEMBL4811315, “Design, synthesis and biochemical evaluation of novel carbonic anhydrase inhibitors triggered by structural knowledge on hCA VII” (Bioorg Med Chem, 2021)

Molecular target: Carbonic anhydrase 9 (Homo sapiens, UniProt Q16790)
Description: Inhibition of full length human CA9 incubated for 15 mins by phenol red dye based stopped flow CO2 hydration assay

Row | Ki [nM] | SMILES
1 | 277 | NS(=O)(=O)c1ccc(C(=O)N2CCN(C(=O)c3ccc[nH]3)CC2)cc1
2 | 9.2 | NS(=O)(=O)c1ccc(C(=O)N2CCN(C(=O)c3cc4ccccc4[nH]3)CC2)cc1
3 | 3050 | Cc1ccoc1C(=O)N1CCN(C(=O)c2ccc(S(N)(=O)=O)cc2)CC1
4 | 125 | NS(=O)(=O)c1ccc(C(=O)N2CCN(C(=O)c3sccc3Br)CC2)cc1
5 | 2990 | NS(=O)(=O)c1ccc(C(=O)N2CCN(C(=O)c3ccc4ccccc4c3)CC2)cc1
6 | 3280 | NS(=O)(=O)c1ccc(C(=O)N2CCN(C(=O)c3cccs3)CC2)cc1
7 | 382 | NS(=O)(=O)c1ccc(C(=O)N2CCN(C(=O)c3ccc(Cl)s3)CC2)cc1
8 | 171 | NS(=O)(=O)c1ccc(C(=O)N2CCN(C(=O)c3ccc([N+](=O)[O-])s3)CC2)cc1
9 | 2920 | Cc1ccsc1C(=O)N1CCN(C(=O)c2ccc(S(N)(=O)=O)cc2)CC1
10 | 2940 | NS(=O)(=O)c1ccc(C(=O)N2CCN(C(=O)c3cc4ccccc4o3)CC2)cc1
11 | 976 | NS(=O)(=O)c1ccc(C(=O)N2CCN(C(=O)c3ccc([N+](=O)[O-])o3)CC2)cc1
12 | 3170 | NS(=O)(=O)c1ccc(C(=O)N2CCN(C(=O)c3ccco3)CC2)cc1
13 | 97.9 | NS(=O)(=O)c1ccc(C(=O)N2CCN(C(=O)c3cc4ccccc4s3)CC2)cc1
